Patent US20200046763A1, “APPLICATION OF GSK3 INHIBITOR IN PREPARING A DRUG TO TREAT NIEMANN-PICK DISEASE TYPE C” (WUXI HANQIANG PHARMACEUTICAL TECHNOLOGY CO., LTD., priority 2016, published 2020)

Key:
[1] = system: NPC1 KD or NPC1 KO hematopoietic and neural stem cells; assay: Effect of GSK3 inhibitor on NP-C cell model (proliferation, stem cell self-renewal and differentiation); assay type: cell-based, mouse; conditions: for self-renewal and differentiation capacities of hematopoietic and neural stem cells: NPC1 KD or NPC1 KO cells, LiCl 10 MM, CHIR99021 3 uM
Experimental: 2) NPC1 gene expression knock-down (KD) human and mouse cells: lentivirus expressing human and mouse NPC1 shRNA is prepared, lentivirus infects human embryonic kidney 293T and Mouse Embryonic Fibroblast (MEF), positive infected cells are screened by puromycin, and qPCR and western blotting validate the effect of NPC1 gene expression knock-down, to obtain the NPC1 KD cell model.
According to the method of Embodiment I, NPC model cells are prepared, and hematopoietic stem cells and neural stem cells of the NPC1 KO mice are isolated.
Experimental procedures and measurement indexes are: treatment of NPC1 KD and NPC1 KO cells with GSK3 specific inhibitors, i.e., LiCl and CHIR99021, and observation of changes in cell proliferation and stern cell self-renewal and differentiation.

NPC1 KO mice = assay: Effect of GSK3 inhibitor on NPC1 KO mouse model; assay type: in vivo; conditions: LiCl 85 mg/kg or CHIR99021 20 mg/kg intraperitoneally daily from first week (b9: or same dose intragastrically)
Experimental: NPC1 KO mice are divided into three groups (a control group, a LiCl treatment group and a CHIR99021 treatment group), with five mice in each group. From the first week after birth, the mice in the LiCl treatment group and the CHIR99021 treatment group are intraperitoneally injected with LiCl (85 mg/kg) and CHIR99021 (20 mg/kg) per day respectively, the mice in the control group are intraperitoneally injected with normal saline, and the survival rate of the mice is continuously observed.
An NPC1 gene knock-out (KO) mouse preparation method: the NPC1 genes are knocked out by CRISPY_Cas9 to obtain NPC1−/−mice.
The NPC mouse model is prepared according to the method of Embodiment II, and LiCl (the dose of 85 mg/kg) or CRIR99021 (the dose of 20 mg/kg) is intraperitoneally injected every day from the first week.
The testing indexes are phenotypes of hematological and neurological systems, as well as symptoms and signs.

[2] = NPC1 KD hematopoietic stem cells, 10 mM LiCl

Row | SMILES | self-renewal and differentiation capacities of hematopoietic and neural stem cells [1] | hematopoietic function of the mice (NPC1 KO mice) | neurodegenerative change symptoms (NPC1 KO mice) | increase of colony formation capacity [1, 2] [%] | increase of proliferation capacity of hematopoietic stem cells [1, 2] [%]
1 | Cc1c[nH]c(-c2cnc(NCCNc3ccc(C#N)cn3)nc2-c2ccc(Cl)cc2Cl)n1 [CHIR99021] | significantly improve | significantly improved | significantly improved |  | 
2 | [Cl-].[Li+] [LiCl] | significantly improve | significantly improved | significantly improved | ≥ 30 | ≥ 50
